Reference: patent US7989464B2, “mGluR1 antagonists as therapeutic agents” (Schering Corporation, priority 2004, dated 2011)
pIC50: −log10 of the molar value.

Target: T1, hmGluR1 receptor (Homo sapiens, UniProt Q13255)
T1 construct: expressed in transfected cells
Test: IC50 determination: intracellular calcium mobilization (FLIPR) upon Quisqualate stimulation in CHO cells stably expressing hmGluR1
Type: cell-based
Details: against Quisqualate 1 μM (EC80), FLIPR calcium mobilization, read-out: IC50 Class
Method: A CHO cell line stably expressing hmGluR1 receptor was established. One day prior to assay, cells were split in growth media at concentration of 50,000 cells/well in a volume of 100 μl and seeded into black clear-bottom 96-well plates. After two to six hours, when cells were well attached to the plate, growth medium was replaced with assay medium (100 μL) consisting of DMEM high glucose, supplemented with GPT (1 U/mL) and Sodium pyruvate, 1 mM. Following overnight incubation, medium was discarded and cells were loaded for 2 h with dye from the Calcium 3 Assay Reagent Kit (Molecular Devices, # R8033), prepared according to manufacturers' instructions. […] Test compounds were added 10 minutes before Quisqualate.

T1 sequence (Q13255 19-1194): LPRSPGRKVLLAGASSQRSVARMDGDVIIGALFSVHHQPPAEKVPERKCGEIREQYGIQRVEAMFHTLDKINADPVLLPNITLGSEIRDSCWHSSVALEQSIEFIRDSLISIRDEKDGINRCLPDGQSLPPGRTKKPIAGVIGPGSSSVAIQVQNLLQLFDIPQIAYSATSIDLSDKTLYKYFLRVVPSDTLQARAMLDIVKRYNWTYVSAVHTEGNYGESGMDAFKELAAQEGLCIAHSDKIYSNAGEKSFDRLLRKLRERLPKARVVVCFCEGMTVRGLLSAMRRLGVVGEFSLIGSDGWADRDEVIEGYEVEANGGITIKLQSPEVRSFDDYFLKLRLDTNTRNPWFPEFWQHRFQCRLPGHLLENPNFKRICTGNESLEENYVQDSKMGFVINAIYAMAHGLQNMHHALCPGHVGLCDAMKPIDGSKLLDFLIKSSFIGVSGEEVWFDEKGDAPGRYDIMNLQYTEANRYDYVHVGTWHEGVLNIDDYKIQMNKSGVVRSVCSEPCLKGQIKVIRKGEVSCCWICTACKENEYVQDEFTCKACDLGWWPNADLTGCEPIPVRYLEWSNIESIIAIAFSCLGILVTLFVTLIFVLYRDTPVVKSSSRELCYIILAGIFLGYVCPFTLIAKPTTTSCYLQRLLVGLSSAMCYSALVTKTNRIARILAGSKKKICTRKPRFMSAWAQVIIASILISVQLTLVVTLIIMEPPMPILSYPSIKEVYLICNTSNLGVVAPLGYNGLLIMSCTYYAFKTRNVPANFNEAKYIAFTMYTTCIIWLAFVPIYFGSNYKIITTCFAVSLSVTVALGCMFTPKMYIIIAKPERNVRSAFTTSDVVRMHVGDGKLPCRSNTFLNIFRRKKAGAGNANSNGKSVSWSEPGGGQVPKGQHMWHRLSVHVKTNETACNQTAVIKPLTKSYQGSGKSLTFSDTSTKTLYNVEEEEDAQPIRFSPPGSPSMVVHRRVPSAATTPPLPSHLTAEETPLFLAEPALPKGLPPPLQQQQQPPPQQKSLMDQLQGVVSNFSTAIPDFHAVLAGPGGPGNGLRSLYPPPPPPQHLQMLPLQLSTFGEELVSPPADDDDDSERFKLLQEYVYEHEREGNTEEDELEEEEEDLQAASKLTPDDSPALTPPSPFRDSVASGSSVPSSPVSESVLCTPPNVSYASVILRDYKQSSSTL

Structure (SMILES) | pIC50
O=c1c2sc3nccc(NC4CC4)c3c2ncn1-c1ccncc1 [28ED] | 6.00 to 6.82
Cc1ccc(-n2cnc3c(sc4ncc(C(=O)N5CCNCC5)cc43)c2=O)cc1 [205B] | < 6.00
CNc1ccnc2sc3c(=O)n(-c4ccc(F)cc4)cnc3c12 [28IB] | > 7.30
Cc1ccc(-n2cnc3c(sc4nccc(NC(C)(C)C)c43)c2=O)cc1 [28EO] | 6.00 to 6.82
C=CCNc1ccnc2sc3c(=O)n(-c4ccc(OC)cc4)cnc3c12 [28DS] | > 7.30
C#CCNc1ncnc2sc3c(=O)n(-c4ccc5ncsc5c4)cnc3c12 [95EM] | 6.00 to 6.82
O=c1c2sc3nccc(NC4CC4)c3c2ncn1-c1ccc(Br)cc1 [28GY] | > 7.30
CC(C)(O)c1ccnc2sc3c(=O)n(-c4ccc(Cl)cc4)cnc3c12 [compound 186] | < 6.00
O=c1c2sc3nccc(NCCO)c3c2ncn1-c1ccc(Cl)cc1 [28GB] | > 7.30
COc1ccc(Nc2ccnc3sc4c(=O)n(-c5ccc(OC)cc5)cnc4c23)cc1 [28FP] | 6.00 to 6.82
C=CCc1cnc2sc3c(=O)n(-c4ccc(Cl)cc4)cnc3c2c1N [178B] | > 7.30
COc1ccnc2sc3c(=O)n(-c4ccc(Br)cc4)cnc3c12 [28FR] | > 7.30
O=c1c2sc3ncnc(Nc4ccccc4)c3c2ncn1-c1ccc2ncsc2c1 [95GD] | < 6.00
CCOc1cnnc2sc3c(=O)n(-c4ccc(C)cc4)cnc3c12 [161A] | < 6.00
CCN(C)c1ccnc2sc3c(=O)n(-c4ccc5occc5c4)cnc3c12 [28BU] | > 7.30
CN(CCO)c1ccnc2sc3c(=O)n(-c4ccc(Br)cc4)cnc3c12 [28HI] | > 7.30
Cc1ccc(-n2cnc3c(sc4nc(NS(C)(=O)=O)cc(N(C)C)c43)c2=O)cc1 [28FL] | 6.00 to 6.82
COc1ccc(-n2cnc3c(sc4nccc(NCC(F)(F)F)c43)c2=O)c(F)c1 [28BM] | 6.82 to 7.30
COc1ccc(-n2cnc3c(sc4nccc(N5CC(O)C5)c43)c2=O)cc1 [28DJ] | 6.82 to 7.30
Cc1ccc(-n2cnc3c(sc4cnnc(NCC(F)(F)F)c43)c2=O)cc1 [167G] | < 6.00
CCNc1ccnc2sc3c(=O)n(-c4ccc5occc5c4)cnc3c12 [28BG] | > 7.30
COc1ccc(-n2cnc3c(sc4ncnc(Nc5ccccc5)c43)c2=O)cc1F [95GA] | < 6.00

Structure (SMILES) | pIC50
COc1ccnc2sc3c(=O)n(-c4ccc(F)cc4)cnc3c12 [compound 180] | 6.00 to 6.82
CCNc1ncnc2sc3c(=O)n(-c4ccc5scnc5c4)cnc3c12 [95BJ] | > 7.30
C[C@@H](O)CNc1ccnc2sc3c(=O)n(-c4ccc(Br)cc4)cnc3c12 [28HB] | > 7.30
CCNc1ccnc2sc3c(=O)n(-c4ccc(F)cc4)cnc3c12 [28HY] | > 7.30
O=c1c2sc3nccc(NC4CC4)c3c2ncn1-c1ccc2scnc2c1 [131J] | > 7.30
CNc1ccnc2sc3c(=O)n(-c4cccc(F)c4)cnc3c12 [28CO] | > 7.30
CCN(C)c1ccnc2sc3c(=O)n(-c4ccc(OC)cc4C)cnc3c12 [28BV] | > 7.30
CNc1ccnc2sc3c(=O)n(-c4ccc5occc5c4)cnc3c12 [28BH] | > 7.30
C=C(C)CNc1ncnc2sc3c(=O)n(-c4cccc(Cl)c4)cnc3c12 [95FK] | 6.82 to 7.30
C#CCNc1ncnc2sc3c(=O)n(-c4ccc(OC)c(F)c4)cnc3c12 [95EK] | 6.00 to 6.82
COc1ccnc2sc3c(=O)n(-c4ccc(C5CC5)cc4)cnc3c12 [137H] | < 6.00
O=c1c2sc3ncnc(NC4CCC4)c3c2ncn1-c1ccc(F)cc1 [95DF] | 6.00 to 6.82
Cc1ccc(-n2cnc3c(sc4ncc(Br)c(NCCN)c43)c2=O)cc1 [28FM] | 6.00 to 6.82
Cc1nc(N)c2c(n1)sc1c(=O)n(-c3ccc(F)cc3)cnc12 [95EW] | 6.82 to 7.30
O=c1c2sc3ncnc(NC4CC4)c3c2ncn1-c1ccc2c(c1)CCO2 [95DK] | > 7.30
Cc1ccc(-n2cnc3c(sc4ncnc(NCC5CCCO5)c43)c2=O)cc1 (stereo not shown) [95FQ] | 6.00 to 6.82
COc1ccnc2sc3c(=O)n(-c4ccc5c(c4)OCCO5)cnc3c12 [161B] | < 6.00
CN(C)c1cccc2sc3c(=O)n(-c4cccc(F)c4)cnc3c12 [103M] | 6.00 to 6.82
CCNc1ccnc2sc3c(=O)n(-c4ccc5c(c4)CCO5)cnc3c12 [28BQ] | > 7.30
COc1ccc(-n2cnc3c(sc4nccc(Nc5ccccn5)c43)c2=O)cc1 [28FO] | 6.00 to 6.82
Cc1ccc(-n2cnc3c(sc4nccc(N5CCOCC5)c43)c2=O)cc1 [28CW] | < 6.00

Same assay, conditions: against Quisqualate 1 μM (EC80), FLIPR calcium mobilization, read-out: mGluR1 IC50

Structure (SMILES) | pIC50
C=CCNc1ccnc2sc3c(=O)n(-c4ccc(OC)cc4)cnc3c12 [28DS] | 8.71
C#CCNc1ccnc2sc3c(=O)n(-c4ccc(C)cc4)cnc3c12 [28Z] | 8.83
C=CCc1cnc2sc3c(=O)n(-c4ccc(Cl)cc4)cnc3c2c1N [178B] | 8.84
CN(C)c1ccnc2sc3c(=O)n(-c4ccc5c(c4)OCCO5)cnc3c12 [7AC] | 8.74
CNc1ccnc2sc3c(=O)n(-c4ccc(C)cc4)cnc3c12 [28AI] | 8.90
CCNc1ccnc2sc3c(=O)n(-c4ccc5c(c4)CCO5)cnc3c12 [28BQ] | 8.80

Same assay, conditions: against Quisqualate 1 μM (EC80), class symbols, read-out: mGIuR 1 IC50

Structure (SMILES) | pIC50
CN(C)c1ccnc2c1c1ncn(-c3ccc(Cl)cc3)c(=O)c1n2C [134F] | 6.00 to 6.82
COc1ccc(Cn2c3nccc(N(C)C)c3c3ncn(-c4ccc(C)cc4)c(=O)c32)cc1 [134H] | < 6.00
O=c1c2sc3nccc(N4CCNCC4)c3c2ncn1C1CCCCC1 [28U] | < 6.00
C#CCNc1ccnc2sc3c(=O)n(-c4ccc(C)cc4)c(C)nc3c12 [113K] | > 7.30
CCN(C)c1ncnc2sc3c(=O)n(-c4ccc(OC(F)F)cc4)cnc3c12 [95T] | > 7.30
COc1ccc(-c2c(C(C)=O)c(C)nc3sc4c(=O)n(-c5ccc(C)cc5)cnc4c23)cc1 [P-10] | 6.00 to 6.82
CN(C)c1cncc2sc3c(=O)n(-c4ccc5scnc5c4)cnc3c12 [37B] | 6.00 to 6.82
O=c1c2sc3nc(-c4cccs4)cc(C(F)(F)F)c3c2ncn1-c1ccccc1 [P-14] | 6.00 to 6.82
Cc1ccccc1-n1cnc2c(sc3nccc(N(C)C)c32)c1=O [7CW] | 6.82 to 7.30
Cc1ccc(-n2cnc3c(sc4nccc(N(C)C)c43)c2=O)cn1 [7DF] | > 7.30
CN(C)c1ccnc2sc3c(=O)n(-c4ccc5[nH]c(=O)[nH]c5c4)cnc3c12 [7CS] | 6.00 to 6.82
C#CCNc1ccnc2sc3c(=O)n(-c4ccc(C)cc4)cnc3c12 [28Z] | > 7.30
CN(C)c1ccnc2sc3c(=O)n(-c4ccc5[nH]ccc5c4)cnc3c12 [7AM] | > 7.30
O=c1c2sc3nccc(NC4CC4)c3c2ncn1C1CCCCC1 [28S] | > 7.30
CN(C)c1ccnc2sc3c(=O)n(-c4ccc(F)cc4)cnc3c12 [7G] | > 7.30
CCN(CC)c1ccnc2sc3c(=O)n(C4CCCCC4)cnc3c12 [28J] | 6.00 to 6.82
CN(C)c1ccnc2sc3c(=O)n(CCN4CCCCC4)cnc3c12 [15O] | < 6.00
COc1cc(N(C)C)c2c(n1)sc1c(=O)n(-c3ccc(C)cc3)cnc12 [compound 58] | > 7.30
COc1ccc(-n2cnc3c(sc4nccc(N(C)C)c43)c2=O)cc1OC [7AD] | < 6.00
CN(C)c1ccnc2sc3c(=O)n(-c4ccc(C5CC5)cc4)cnc3c12 [137A] | > 7.30

Structure (SMILES) | pIC50
O=c1c2sc3nccc(NCC4CC4)c3c2ncn1C1CCCCC1 [28AJ] | 6.00 to 6.82
O=c1c2sc3nccc(N4CCN(CC5CC5)CC4)c3c2ncn1C1CCCCC1 [61B] | < 6.00
CN(C)c1ccnc2sc3c(=O)n(-c4ccc5ncsc5c4)cnc3c12 [7AS] | > 7.30
CSc1ccc(-n2cnc3c(sc4nc(C)cc(N(C)C)c43)c2=O)cc1 [7DA] | 6.00 to 6.82
Cc1cc(N(C)C)c2c(n1)sc1c(=O)n(-c3cccc(Br)c3)cnc12 [7DN] | 6.82 to 7.30
O=c1c2sc3c(ccc[n+]3[O-])c2ncn1-c1ccccc1 [12A] | 6.00 to 6.82
C#CCNc1ccnc2sc3c(=O)n(C4CCCCC4)cnc3c12 [72G] | > 7.30
COc1ccc(-n2cnc3c(sc4nccc(N(C)C)c43)c2=O)cc1F [7AP] | > 7.30
CCNc1ccnc2sc3c(=O)n(-c4ccc5ncsc5c4)cnc3c12 [131C] | > 7.30
CN(C)c1ccnc2sc3c(=O)n(-c4ccc(CC#N)cc4)cnc3c12 [7BC] | < 6.00
CNc1c(Cl)cnc2sc3c(=O)n(C4CCCCC4)cnc3c12 [compound 42] | 6.82 to 7.30
COc1ccnc2sc3c(=O)n(C4CCCCC4)cnc3c12 [25A] | 6.00 to 6.82
COc1cc(O)nc2sc3c(=O)n(C4CCCCC4)cnc3c12 [compound 80] | < 6.00
O=C1CCCN1c1ccnc2sc3c(=O)n(C4CCCCC4)cnc3c12 [30C] | < 6.00
CN(C)c1ccnc2sc3c(=O)n(-c4ccc5c(c4)OCCO5)cnc3c12 [7AC] | > 7.30
CCCN(CCC)c1ccnc2sc3c(=O)n(C4CCCCC4)cnc3c12 [28K] | < 6.00
CNc1ccnc2sc3c(=O)n(-c4ccc(C)cc4)cnc3c12 [28AI] | > 7.30
COc1ccc(-n2cnc3c(sc4nccc(N(C)C)c43)c2=O)c(F)c1 [7DK] | > 7.30
COc1ccnc2sc3c(=O)n(-c4ccc(C)cc4)cnc3c12 [25C] | 6.82 to 7.30
